# According to US20210121460A1, “A TRIPLE PHARMACEUTICAL COMBINATION COMPRISING DABRAFENIB, TRAMETINIB AND AN ERK INHIBITOR” (NOVARTIS AG, priority 2018, published 2021):
# Tested on: BRAF V600E CRC xenograft model HT29
# Assay: In vivo antitumor efficacy, HT29 BRAF V600E CRC xenograft model (Example 4, 14 day)
# Conditions: HT29 in female nude mice; compound A 75 mg/kg, dabrafenib 30 mg/kg, trametinib 0.3 mg/kg QD PO, cetuximab 20 mg/kg 2QW IP
# Experimental: HT29 xenografts was established by direct subcutaneous (sc) implantation of 2×10^6 cells into the right axillary region of 6-7 week old female nude mice.
# Animals were weighed at dosing day(s) and dose was body weight adjusted, dosing volume was 10 ml/kg. Tumor dimensions and body weights were collected at the time of randomization and twice weekly thereafter for the study duration.
# Percent treatment/control (T/C) values were calculated using the following formulae:
# % Regression=100×ΔT/T0 if ΔT<0;
# where: T=mean tumor volume of the drug-treated group on the final day of the study; ΔT=mean tumor volume of the drug-treated group on the final day of the study—mean tumor volume of the drug-treated group on initial day of dosing; T0=mean tumor volume of the drug-treated group on the day of cohort; C=mean tumor volume of the control group on the final day of the study; and ΔC=mean tumor volume of the control group on the final day of the study—mean tumor volume of the control group on initial day of dosing.
# All data were expressed as mean±standard error of the mean (SEM). Delta tumor volume and percent body weight changes were used for statistical analysis. Between group comparisons were carried out using the One way ANOVA followed by a post hoc Tukey test. For all statistical evaluations, the level of significance was set at p<0.05. Significance compared to the untreated control group is reported unless otherwise stated.
row,Structure (SMILES),T/C % or Reg % at day 39 post implantation
1,"CC(=O)Nc1cccc(-n2c(=O)n(C3CC3)c(=O)c3c(Nc4ccc(I)cc4F)n(C)c(=O)c(C)c32)c1 [trametinib, N-(3-(3-cyclopropyl-5-((2-fluoro-4-iodophenyl)amino)-6,8-dimethyl-2,4,7-trioxo-3,4,6,7-tetrahydropyrido[4,3-d]pyrimidin-1(2H)-yl)phenyl)acetamide]",47.7%
2,"CNC[C@@H](NC(=O)c1ccc(-c2nc([C@H]3CC[C@H](O)[C@@H](F)C3)cnc2N)cc1F)c1cc(F)cc(Br)c1 [compound A, 4-(3-amino-6-((1S,3S,4S)-3-fluoro-4-hydroxycyclohexyl)pyrazin-2-yl)-N—((S)-1-(3-bromo-5-fluorophenyl)-2-(methylamino)ethyl)-2-fluorobenzamide]",53.8%
3,"CC(C)(C)c1nc(-c2cccc(NS(=O)(=O)c3c(F)cccc3F)c2F)c(-c2ccnc(N)n2)s1 [dabrafenib, N-(3-(5-(2-aminopyrimidin-4-yl)-2-(tert-butyl)thiazol-4-yl)-2-fluorophenyl)-2,6-difluorobenzenesulfonamide]",58.8%
